Laboratory results published in patent publication US12479888B2, “Polypeptide and application thereof” (HDL SOLUTIONS OTTAWA, priority 2019, dated 2025).
Values joined by “and” are separate entries in the source; they are usually repeats but may differ in a detail not shown here. Identical values can stand only once. Ends that are not written are not given here. * marks the point of attachment. Stearoyl = CCCCCCCCCCCCCCCCCC(=O)*

Assays:
Type in all cases: in vivo
[1] = Body weight of apoE knockout mice on high-fat diet
From the text: (§1) Male apoE knockout mice (C57BL/6J) at age of 10 weeks were purchased from GemPharmatech, Nanjing, Jiangsu, China. The mice were fed with low fat diet [SPF growth and reproduction feed for rats and mice: 12.95% fat (wt/wt), 24.02% protein (wt/wt)] from Beijing KeaoXieli Feed Co. Ltd., Beijing, China in a pathogen-free facility for two weeks, and then divided into the following three groups (8 mice each group): (a) the control group was fed low fat diet, referred to as Chow; (b) the high-fat group was fed high-fat diet (HFD) [21% fat (wt/wt), 0.15% (wt/wt) cholesterol, 20% protein (wt/wt), Research Diets, New Brunswick, NJ, D12079B], referred to as the HFD; (c) the treatment group was fed high-fat diet plus the injection through tail vein with polypeptide 21H21 (50 μg/200μL 1× PBS) once every four days, referred to as the HFD+21H21. The total injection was 10 times. One day after the last injection, the mice were anesthetized and euthanized in carbon dioxide, and then blood, liver and aorta were collected. During the period of the experiment, each group of mice was weighed. All animal experiments were carried out in accordance with the animal management guidelines of the People's Republic of China.

LDLR-deficient mice = test: Oil Red O staining of full-length aorta, area of neutral lipids; conditions: HFD+21H21 vs HFD, 50 μg tail vein once every three days, 10 injections
From the text: (§2) Male LDLR-deficient mice (C57BL/6-Ldlrem1Cd82/Nju) at age of 11 weeks were purchased fromGemPharmatech, Nanjing, Jiangsu, China. The mice were fed with low fat diet [SPF growth and reproduction feed for rats and mice: 12.95% fat (wt/wt), 24.02% protein (wt/wt)] from Beijing KeaoXieli Feed Co. Ltd., Beijing, China in a pathogen-free facility for two weeks, and then divided into the following three groups (8 mice each group): (a) the control group was fed low fat diet, referred to as Chow; (b) the high-fat group was fed high-fat diet (HFD) [21% fat (wt/wt), 0.15% (wt/wt) cholesterol, 20% protein (wt/wt), Research Diets, New Brunswick, NJ, D12079B], referred to as the HFD; (c) the treatment group was fed high-fat diet plus the injection through tail vein with polypeptide 21H21(50μg/200μL lx PBS) once every three days, referred to as the HFD+21H21. The total injection was 10 times. One day after the last injection, the mice were anesthetized and euthanized in carbon dioxide, and then blood, liver and aorta werecollected. During the period of the experiment, each group of mice was weighed. All animal experiments were carried out in accordance with the animal management guidelines of the People's Republic of China.
Aorta separation in Experimental Example 4 was carried out as Tangirala RK, et al. (Circulation. 1999; 100: 1816-1822). […]

apoE knockout mice [2] = test: as above; conditions: HFD+21H21 vs HFD, 50 μg tail vein once every four days, 10 injections, p value=4.40108E-05
From the text: as §1
Aorta separation in Experimental Example 1 was carried out as Tangirala R K, et al. (Circulation. 1999; 100: 1816-1822). […]

apoE knockout mice [3] = test: Oil Red O staining of aortic root cryostat sections, area of neutral lipids; conditions: HFD+21H21 vs HFD, 50 μg tail vein once every four days, 10 injections
From the text: as §1
The upper half of the heart together with the aortic root tissue collected in Experimental Example 1 was embedded in OCT compound (Sakura Tissue-Tek) and stored at −80° C. […]

[4] = Body weight of LDLR-deficient mice on high-fat diet
From the text: as §2

apoE knockout mice [5] = test: Oil Red O staining of liver cryostat sections, area of neutral lipids; conditions: HFD+21H21 vs HFD, 50 μg tail vein once every four days, 10 injections, p value=0.0004
From the text: as §1
Liver tissue collected in Experimental Example 1 was embedded in OCT compound (Sakura Tissue-Tek) and then stored at −80° C. […]

21H21: Stearic acid conjugated to the N-terminus of polypeptide SEQ ID NO: 3 (FAYLQDVVEQAIIRVLTGTEK) (Stearoyl-FAYLQDVVEQAIIRVLTGTEK)
Effect on weight gain by high-fat diet ([1]; 50 μg per mouse i.v. once every four days): able to offset weight gain | Percentage decrease of body weight (HFD + 21H21 vs HFD) ([1]; Day 88): 12.82% | Average body weight per mouse ([1]; Day 88, HFD + 21H21 50 μg tail vein once every four days): 24.38 g | Percentage decrease of body weight (HFD + 21H21 vs HFD) ([1]; Day 97): 14.46% | Average body weight per mouse ([1]; Day 97, HFD + 21H21 50 μg tail vein once every four days): 24.83 g | Percentage decrease of body weight (HFD + 21H21 vs HFD) ([1]; Day 105): 15.79% | Average body weight per mouse ([1]; Day 105, HFD + 21H21 50 μg tail vein once every four days): 25.21 g | Percentage decrease of body weight (HFD + 21H21 vs HFD) ([1]; Day 110): 13.82% | Average body weight per mouse ([1]; Day 110, HFD + 21H21 50 μg tail vein once every four days): 25.61 g | Percentage decrease of body weight (HFD + 21H21 vs HFD) ([1]; Day 119): 12.24% | Average body weight per mouse ([1]; Day 119, HFD + 21H21 50 μg tail vein once every four days): 26.63 g | Percentage decrease of body weight (HFD + 21H21 vs HFD) ([1]; Day 123): 15.04% | Average body weight per mouse ([1]; Day 123, HFD + 21H21 50 μg tail vein once every four days): 26.76 g | Prevention of atherosclerotic lesion of full-length aorta (LDLR-deficient mice): 94% | Prevention of atherosclerotic lesion of full-length aorta (apoE knockout mice [2]): 48% | Prevention of accumulation of neutral lipids at the aortic root caused by high-fat diet (apoE knockout mice [3]): 35% | Percentage of weight gain during experiment ([4]; HFD + 21H21 50 μg tail vein once every three days): 10.02% | Average body weight after experiment ([4]; HFD + 21H21 50 μg tail vein once every three days, 10 injections): 29.2 ± 0.02 g | Average body weight before experiment ([4]; HFD + 21H21 group (n = 8), baseline): 26.54 ± 0.02 g | Percentage of weight gain offset by 21H21 ([4]; HFD + 21H21 vs HFD): 29% and 29.17% | Prevention of accumulation of neutral lipids in liver tissue caused by high-fat diet (apoE knockout mice [5]): 53%
